The source of these data is patent US10730863B2, “Bridged bicyclic compounds as farnesoid X receptor modulators” (BRISTOL-MYERS SQUIBB COMPANY, priority 2017, dated 2020).

This test concerns the target FXR (Homo sapiens (Human), UniProt Q96RI1). Kind of test: FXR EC50 (FXR agonist activity reported with each example). The class given is cell-based.

FXR, sequence (Q96RI1 262-486): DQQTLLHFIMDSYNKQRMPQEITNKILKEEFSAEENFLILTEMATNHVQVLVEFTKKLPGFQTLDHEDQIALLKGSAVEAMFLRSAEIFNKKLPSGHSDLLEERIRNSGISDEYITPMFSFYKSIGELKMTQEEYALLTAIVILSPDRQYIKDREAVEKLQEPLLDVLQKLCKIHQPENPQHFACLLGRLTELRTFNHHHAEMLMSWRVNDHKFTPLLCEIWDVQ

The EC50 is the concentration giving half of the maximal effect. In the case of `O=C(O)c1cc(OC2CC2)c2cc(OCC34CCC(OCc5c(-c6c(Cl)cncc6Cl)noc5C5CC5)(CC3)CC4)ccc2n1` [Example 331, 4-cyclopropoxy-6-((4-((5-cyclopropyl-3-(3,5-dichloropyridin-4-yl)isoxazol-4-yl)methoxy)bicyclo[2.2.2]octan-1-yl)methoxy)quinoline-2-carboxylic acid], the EC50 turned out to be 23 nM.

The compound `O=C(O)c1ccc2nc(C34CCC(OCc5c(-c6c(Cl)cccc6Cl)noc5C5CC5)(CC3)CC4)ccc2n1` [Example 136, 6-(4-((5-cyclopropyl-3-(2,6-dichlorophenyl)isoxazol-4-yl)methoxy)bicyclo[2.2.2]octan-1-yl)-1,5-naphthyridine-2-carboxylic acid] yielded an EC50 of 36 nM. This EC50 lies about 1.6-fold higher than the previous one.

In turn, `CC(C)(O)COc1ccc(C(=O)O)c2ccc(C34CCC(OCc5c(-c6c(Cl)cncc6Cl)noc5C5CC5)(CC3)CC4)nc12` [Example 418, 2-(4-((5-cyclopropyl-3-(3,5-dichloropyridin-4-yl)isoxazol-4-yl)methoxy)bicyclo[2.2.2]octan-1-yl)-8-(2-hydroxy-2-methylpropoxy)quinoline-5-carboxylic acid] showed an EC50 of 120 nM.

Compound `O=C(O)c1cc(C#CC23CCC(OCc4c(-c5c(Cl)cncc5Cl)noc4C4CC4)(CC2)CC3)cn2ccnc12` [Example 404] returned an EC50 of 140 nM.

`O=C(O)c1cccc(/C=C/C23CCC(OCc4c(-c5c(Cl)cccc5Cl)noc4C4CC4)(CC2)CC3)c1` [Example 7, (E)-3-(2-(4-((5-cyclopropyl-3-(2,6-dichlorophenyl)isoxazol-4-yl)methoxy)bicyclo[2.2.2]octan-1-yl)vinyl)benzoic acid] gave an EC50 of 150 nM.

`O=C(O)c1cccc(-c2nnc(C34CCC(OCc5c(-c6ccccc6OC(F)(F)F)noc5C5CC5)(CC3)CC4)o2)c1` [Example 18, 3-(5-(4-((5-cyclopropyl-3-(2-(trifluoromethoxy)phenyl)isoxazol-4-yl)methoxy)bicyclo[2.2.2]octan-1-yl)-1,3,4-oxadiazol-2-yl)benzoic acid]: the midpoint of the response, the EC50, lay at 1100 nM.

As for `O=C(O)c1cnc(C#CC23CCC(OCc4c(-c5c(Cl)cncc5Cl)noc4C4CC4)(CC2)CC3)c(F)c1` [Example 379], a half-maximal effect (EC50) was put at 240 nM.

For the compound `O=C(O)c1cccc(OCC23CCC(COCc4c(-c5c(Cl)cccc5Cl)noc4C4CC4)(CC2)CC3)c1` [Example 484, 3-((4-(((5-cyclopropyl-3-(2,6-dichlorophenyl)isoxazol-4-yl)methoxy)methyl)bicyclo[2.2.2]octan-1-yl)methoxy)benzoic acid], the 50% effective concentration (EC50) came to 200 nM.

With `O=C(O)c1cc(C#CC23CCC(OCc4c(-c5c(Cl)cncc5Cl)noc4C4CC4)(CC2)CC3)cc(OC(F)(F)F)c1` [Example 378], the EC50 came out at 130 nM.

`O=C(O)c1cc(-c2noc(C34CCC(OCc5c(-c6c(Cl)cncc6Cl)noc5C5CC5)(CC3)CC4)n2)ccn1` [Example 249, 4-(5-(4-((5-cyclopropyl-3-(3,5-dichloropyridin-4-yl)isoxazol-4-yl)methoxy)bicyclo[2.2.2]octan-1-yl)-1,2,4-oxadiazol-3-yl)picolinic acid] registered an EC50 of 240 nM.

`CC(C)Oc1cc(OCC23CCC(OCc4c(-c5c(Cl)cncc5Cl)noc4C4CC4)(CC2)CC3)cnc1C(=O)O` [Example 334, 5-((4-((5-cyclopropyl-3-(3,5-dichloropyridin-4-yl)isoxazol-4-yl)methoxy)bicyclo[2.2.2]octan-1-yl)methoxy)-3-isopropoxypicolinic acid] registered an EC50 of 21 nM.

For `O=C(O)c1cnc(OCC23CCC(OCc4c(-c5c(Cl)cncc5Cl)noc4C4CC4)(CC2)CC3)c(C(F)(F)F)c1` [Example 279, 6-((4-((5-cyclopropyl-3-(3,5-dichloropyridin-4-yl)isoxazol-4-yl)methoxy)bicyclo[2.2.2]octan-1-yl)methoxy)-5-(trifluoromethyl)nicotinic acid], the EC50 was 190 nM.

`O=C(O)c1ccc(C23CCC(COCc4c(-c5ccccc5OC(F)(F)F)noc4C4CC4)(CC2)CO3)cc1` [Example 205] displayed an EC50 of 450 nM. Against the preceding compound, the EC50 is about 2.4-fold higher.

The compound `O=C(O)c1ccc2c(c1)CN(CC13CCC(OCc4c(-c5c(Cl)cccc5Cl)noc4C4CC4)(CC1)CC3)CC2` [Example 362, 2-((4-((5-cyclopropyl-3-(2,6-dichlorophenyl)isoxazol-4-yl)methoxy)bicyclo[2.2.2]octan-1-yl)methyl)-1,2,3,4-tetrahydroisoquinoline-7-carboxylic acid] displayed an EC50 of 170 nM.

`O=C(O)c1cc(OCC(CO)CCl)c2cc(OCC34CCC(OCc5c(-c6c(Cl)cncc6Cl)noc5C5CC5)(CC3)CC4)ccc2n1` (stereo not shown) [Example 356] registered an EC50 of 110 nM.

Compound `COc1ccc(-c2noc(C34CCC(OCc5c(-c6c(Cl)cncc6Cl)noc5C5CC5)(CC3)CC4)n2)nc1C(=O)O` [Example 253, 6-(5-(4-((5-cyclopropyl-3-(3,5-dichloropyridin-4-yl)isoxazol-4-yl)methoxy)bicyclo[2.2.2]octan-1-yl)-1,2,4-oxadiazol-3-yl)-3-methoxypicolinic acid] came in with an EC50 of 740 nM.

As for `O=C(O)c1cccc(-c2nc(C34CCC(OCc5c(-c6ccccc6OC(F)(F)F)noc5C5CC5)(CC3)CC4)no2)c1` [Example 55], the EC50 was 250 nM.

Compound “3-((4-((5-cyclopropyl-3-(2- trifluoromethoxy)phenyl)isoxazol-4- yl)methoxy)bicyclo[2.2.2]octan-1- yl)methoxy)nicotinic acid [Example 78]” had an EC50 of 1400 nM.

`O=C(O)c1cc(C2CC2)c2cc(OCC34CCC(OCc5c(-c6c(Cl)cncc6Cl)noc5C5CC5)(CC3)CC4)cc(F)c2n1` [Example 311, 4-cyclopropyl-6-((4-((5-cyclopropyl-3-(3,5-dichloropyridin-4-yl)isoxazol-4-yl)methoxy)bicyclo[2.2.2]octan-1-yl)methoxy)-8-fluoroquinoline-2-carboxylic acid] showed an EC50 of 9 nM.

In turn, `O=C(O)c1cc(F)cc(-c2noc(C34CCC(OCc5c(-c6c(Cl)cccc6Cl)noc5C5CC5)(CC3)CO4)n2)c1` [Example 219, 3-(5-(4-((5-cyclopropyl-3-(2,6-dichlorophenyl)isoxazol-4-yl)methoxy)-2-oxabicyclo[2.2.2]octan-1-yl)-1,2,4-oxadiazol-3-yl)-5-fluorobenzoic acid] showed an EC50 of 300 nM.

`O=C(O)c1cc(F)cc2nc(OCC34CCC(/C=C/c5c(-c6c(Cl)cncc6Cl)noc5C5CC5)(CC3)CC4)sc12` [Example 469, (E)-2-((4-(2-(5-cyclopropyl-3-(3,5-dichloropyridin-4-yl)isoxazol-4-yl)vinyl)bicyclo[2.2.2]octan-1-yl)methoxy)-5-fluorobenzo[d]thiazole-7-carboxylic acid] showed an EC50 of 190 nM.

`O=C(O)c1cc(F)cc2nc(OCC34CCC(OCc5c(-c6c(Cl)cncc6Cl)noc5C5CC5)(CC3)CC4)sc12` [Example 463, 2-((4-((5-cyclopropyl-3-(3,5-dichloropyridin-4-yl)isoxazol-4-yl)methoxy)bicyclo[2.2.2]octan-1-yl)methoxy)-5-fluorobenzo[d]thiazole-7-carboxylic acid] showed an EC50 of 41 nM.

Consider `O=C(O)c1ccccc1CNC(=O)C12CCC(OCc3c(-c4c(Cl)cccc4Cl)noc3C3CC3)(CC1)CC2` [Example 142, 2-((4-((5-cyclopropyl-3-(2,6-dichlorophenyl)isoxazol-4-yl)methoxy)bicyclo[2.2.2]octane-1-carboxamido)methyl)benzoic acid], for which the midpoint of the response, the EC50, lay at 1300 nM.

`O=C(O)c1cncc(-c2noc(C34CCC(OCc5c(-c6ccccc6C(F)(F)F)noc5C5CC5)(CC3)CC4)n2)c1` [Example 11, 5-(5-(4-((5-cyclopropyl-3-(2-(trifluoromethyl)phenyl)isoxazol-4-yl)methoxy)bicyclo[2.2.2]octan-1-yl)-1,2,4-oxadiazol-3-yl)nicotinic acid] registered a concentration for a half-maximal effect (EC50) of 2900 nM.

In the case of `O=C(O)c1cccc(C23CCC(COCc4c(-c5c(Cl)cccc5Cl)noc4C4CC4)(CC2)CO3)c1` [Example 195, 3-(4-(((5-cyclopropyl-3-(2,6-dichlorophenyl)isoxazol-4-yl)methoxy)methyl)-2-oxabicyclo[2.2.2]octan-1-yl)benzoic acid], a half-maximal response (EC50) required 47 nM.

`COC(=O)c1ccc(NC(=S)C23CCC(COCc4c(-c5c(Cl)cccc5Cl)noc4C4CC4)(CC2)CC3)c(Cl)c1` [Intermediate 168A, methyl 3-chloro-4-(4-(((5-cyclopropyl-3-(2,6-dichlorophenyl)isoxazol-4-yl)methoxy)methyl)bicyclo[2.2.2]octane-1-carbothioamido)benzoate]: the EC50 was 4380 nM.

For the compound `O=C(O)c1cccc2c1CN(C(=O)C13CCC(OCc4c(-c5c(Cl)cccc5Cl)noc4C4CC4)(CC1)CC3)CC2` [Example 146, 2-(4-((5-cyclopropyl-3-(2,6-dichlorophenyl)isoxazol-4-yl)methoxy)bicyclo[2.2.2]octane-1-carbonyl)-1,2,3,4-tetrahydroisoquinoline-8-carboxylic acid], the EC50 stood at 3100 nM.

For the compound `O=C(O)c1cc(-c2noc(C34CCC(/C=C/c5c(-c6c(Cl)cncc6Cl)noc5C5CC5)(CC3)CO4)n2)cc(C(F)(F)F)c1` [Example 478, (E)-3-(5-(4-(2-(5-cyclopropyl-3-(3,5-dichloropyridin-4-yl)isoxazol-4-yl)vinyl)-2-oxabicyclo[2.2.2]octan-1-yl)-1,2,4-oxadiazol-3-yl)-5-(trifluoromethyl)benzoic acid], the EC50 is 120 nM. Against the preceding compound, the EC50 is about 26-fold lower.

`O=C(O)c1cc(-c2noc(C34CCC(OCc5c(-c6c(Cl)cncc6Cl)noc5C5CC5)(CC3)CC4)n2)cc(OCC(F)(F)F)n1` [Example 263, 4-(5-(4-((5-cyclopropyl-3-(3,5-dichloropyridin-4-yl)isoxazol-4-yl)methoxy)bicyclo[2.2.2]octan-1-yl)-1,2,4-oxadiazol-3-yl)-6-(2,2,2-trifluoroethoxy)picolinic acid] showed an EC50 of 95 nM.

In turn, `O=C(O)c1cc(OC(F)F)c2cc(OCC34CCC(OCc5c(-c6c(Cl)cncc6Cl)noc5C5CC5)(CC3)CC4)ccc2n1` [Example 284, 6-((4-((5-cyclopropyl-3-(3,5-dichloropyridin-4-yl)isoxazol-4-yl)methoxy)bicyclo[2.2.2]octan-1-yl)methoxy)-4-(difluoromethoxy)quinoline-2-carboxylic acid] displayed an EC50 of 8 nM.

Compound `COC(=O)c1ccc(-c2noc(C34CCC(OCc5c(-c6ccccc6C(F)(F)F)noc5C5CC5)(CC3)CC4)n2)cc1` [Example 34] had an EC50 of 5100 nM.
